Test results as given in patent US20230066156A1, “6-SUBSTITUTED, 22-CYANO HYODEOXYCHOLANIC ANALOGUES AND USES THEREOF” (PRECISION BIO-THERAPEUTICS S.R.L., priority 2019, published 2023).

System: TNBS-induced colitis
Assay: TNBS-induced colitis in Gpbar1+/+ and Gpbar1-/- mice
Format: in vivo
Details: for development and severity of colitis assessed by body weight lost, CDAI and histological sections: 30 mg/kg daily by o.s., FIG. 2A-C
Method: Because macrophages are one of the most abundant leucocytes in the intestinal mucosa and are implicated in the pathogenesis of IBDs (Inflammatory bowel diseases), the effect of PBT110B was investigated in a TNBS-induced colitis (2,4,6-trinitrobenzene sulfonic acid-induced) in Gpbar1+/+ and Gpbar1-/- mice. Gpbar1+/+ and Gpbar1-/- mice were treated with TNBS alone or in combination PBT110B (30 mg/kg). […] In addition, the expression of pro- and anti-inflammatory cytokines in the colon of these animals (FIG. 3) was analyzed. Gpbar1^+/+ and Gpbar1^-/- mice were treated with TNBS alone or in combination PBT110B (30 mg/kg). Values are normalized relative to Gapdh mRNA and are expressed as mean±SEM (n=5); ^#p<0.05. GPBAR1 null mice on C57BL/6NCrl background, and C57BL/6NCrl congenic littermates were originally donated by Dr. […] (Schering-Plough Research Institute, Kenilworth). The colonies were maintained in the animal facility of University of Perugia. Mice were housed under controlled temperatures (22° C.) and photoperiods (12:12-hour light/dark cycle), allowed unrestricted access to standard mouse chow and tap water and allowed to acclimate to these conditions for at least 5 days before inclusion in an experiment. The study was conducted in agreement with the Italian law and the protocol was approved by ethical committee of University of Perugia and by a National Committee of Italian Ministry of Health permit n° 1126/2016-PR. The health and body conditions of the animals were monitored daily by the veterinarian in the animal facility. The study protocol caused minor suffering, however, animals that lost more than 25% of the initial body weight were euthanized. Colitis was induced in mice by TNBS. Mice were fasted for 12 h (day -1) and the day after (day 0) mice were anesthetized, and a 3.5 F catheter inserted into the colon such that the tip was 3 cm proximal to the anus. To induce colitis, 1 mg of 2,4,6-trinitrobenzenesulfonic acid TNBS (Sigma Chemical Co, St Louis, Mo.) in 50% ethanol was administered via catheter into the lumen using a 1 ml syringe (injection volume of 200 μL); control mice received 50% ethanol alone. Animals were monitored daily. At the end of the experiments, the surviving mice were sacrificed and the colon was excised, weighed, and evaluated for macroscopic damage. In some groups of mice, PBT110B dissolved in nitrocellulose 1% was administered daily also by o.s. at the concentration of 30 mg/kg of body weight The severity of colitis was measured each day for each mouse by assessing the body weight, the fecal blood and stool consistency. Each parameter was scored from 0 to 4 and the sum represents the Colitis Disease Activity Index (CDAI). The scoring system was as following: percent of body weight loss: none=0; 1-5%=1; 5-10%=2; 10-20%=3; >20%=4. Stool consistency: normal=0; soft but still formed=1; very soft=2; diarrhea=3; liquid stools that stick to the anus or anal occlusion=4. Fecal blood: none=0; visible in the stool=2; severe bleeding with fresh blood around the anus and very present in the stool=4. Samples of distal colon (2-3 cm from the anus) were fixed in buffered formalin, cut into 5-μm-thick sections (150 μm between each section, four to eight per fragment per colon), and stained with H&E. Colon samples were immediately frozen in liquid nitrogen and stored at -80° C. until used, mechanically homogenated with the aid of a pestle, and the obtained materials re-suspended in 1 ml of Trizol (Thermo ScientificTM). […]

[1] = wild-type mice, 30 mg/kg, Real-Time PCR, FIG. 3

## CC[C@]1(O)C[C@H]2[C@@H]3CC[C@H]([C@H](C)CC#N)[C@@]3(C)CC[C@@H]2[C@@]2(C)CC[C@@H](O)C[C@@H]12 [PBT110B, 3α,6α-dihydroxy-6β-ethyl-24-nor-5β-cholan-23-nitrile]
Gpbar1+/+ mice
  development and severity of colitis assessed by body weight lost, CDAI and histological sections: attenuated
Gpbar1-/- mice
  development and severity of colitis assessed by body weight lost, CDAI and histological sections: failed to do the same
Mice lacking the receptor (Gpbar1-/-), 30 mg/kg, FIG. 3
  beneficial effects on colon cytokine expression (pro-inflammatory cytokines, IL-10): lost
[1]
  expression of pro-inflammatory cytokines (Il-6, Il-1β, TNF-α) in the colon: reducing
  expression of the anti-inflammatory cytokine IL-10 in the colon: increasing
